Columns and labels:
[1] = molecular target: T1, KRAS-G12C/SOS1 (Homo sapiens, UniProt Q07889); experiment: Blocking the binding of KRAS G12C protein to SOS1 (Cisbio KRAS-G12C/SOS1 binding assay kit, TR-FRET); details: Tag1-SOS1 and Tag2-KRAS-G12C, TR-FRET 665/620; read-out: IC50 (nM) Inhibition of KRAS-G12C/SOS1 binding
T1 construct: purchased Cisbio 63ADK000CB16PEG
T1 sequence (Q07889 1-1333): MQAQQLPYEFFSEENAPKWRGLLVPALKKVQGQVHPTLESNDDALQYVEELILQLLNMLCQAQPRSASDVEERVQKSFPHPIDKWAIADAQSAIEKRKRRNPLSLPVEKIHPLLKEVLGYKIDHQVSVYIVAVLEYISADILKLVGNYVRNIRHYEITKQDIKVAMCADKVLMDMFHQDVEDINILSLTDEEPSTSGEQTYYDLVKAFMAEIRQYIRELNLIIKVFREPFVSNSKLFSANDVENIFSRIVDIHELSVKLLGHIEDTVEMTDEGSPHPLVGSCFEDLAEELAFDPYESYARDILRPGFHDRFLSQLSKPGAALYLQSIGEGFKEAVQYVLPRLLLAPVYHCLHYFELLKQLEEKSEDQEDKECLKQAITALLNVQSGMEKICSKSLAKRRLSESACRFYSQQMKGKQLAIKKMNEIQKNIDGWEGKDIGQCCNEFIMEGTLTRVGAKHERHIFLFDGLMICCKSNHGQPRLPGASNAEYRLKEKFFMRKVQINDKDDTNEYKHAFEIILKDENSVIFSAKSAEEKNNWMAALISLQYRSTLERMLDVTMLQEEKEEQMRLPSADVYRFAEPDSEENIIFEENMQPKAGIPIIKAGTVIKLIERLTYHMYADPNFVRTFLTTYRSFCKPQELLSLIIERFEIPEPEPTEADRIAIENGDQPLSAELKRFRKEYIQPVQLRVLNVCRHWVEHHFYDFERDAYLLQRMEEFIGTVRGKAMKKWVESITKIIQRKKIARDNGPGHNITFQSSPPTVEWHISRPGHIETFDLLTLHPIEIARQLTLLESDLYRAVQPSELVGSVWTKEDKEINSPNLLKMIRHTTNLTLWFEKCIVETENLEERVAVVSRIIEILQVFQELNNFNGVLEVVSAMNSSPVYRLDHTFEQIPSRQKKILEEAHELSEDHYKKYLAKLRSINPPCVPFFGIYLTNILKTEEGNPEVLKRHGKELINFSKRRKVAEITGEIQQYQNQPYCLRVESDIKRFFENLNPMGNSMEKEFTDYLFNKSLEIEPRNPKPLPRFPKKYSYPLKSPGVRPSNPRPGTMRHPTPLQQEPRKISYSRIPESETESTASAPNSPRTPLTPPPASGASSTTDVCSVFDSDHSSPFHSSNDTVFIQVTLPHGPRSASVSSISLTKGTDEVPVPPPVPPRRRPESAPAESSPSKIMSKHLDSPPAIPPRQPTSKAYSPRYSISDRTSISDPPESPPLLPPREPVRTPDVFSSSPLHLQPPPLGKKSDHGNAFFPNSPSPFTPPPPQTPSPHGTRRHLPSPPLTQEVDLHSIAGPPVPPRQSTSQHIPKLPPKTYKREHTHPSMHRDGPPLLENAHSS
Text: The following method was used to determine the abilities of compounds of the invention to block the interaction of SOS1 with the KRAS G12C protein in vitro. KRAS-G12C/SOS1 BINDING ASSAY KITS (Art. No. 63ADK000CB16PEG) from Cisbio was used in this method. Please refer to the kit instruction for detailed experimental operations.
The experimental process can be briefly described as follows: diluent buffer (Art. No. 62DLBDDF) was used to prepare a working solution with a concentration of 5× for Tag1-SOS1 and Tag2-KRAS-G12C protein. The test compounds were dissolved in DMSO to prepare storage solutions of 10 mM, and then the solutions were diluted with dilution buffer for later use. First, 2 μL of the test compound (the final concentrations of the reaction system were 10000 nM-0.1 nM) was added to the well, then 4 μL of Tag1-SOS1 5× working solution and 4 μL of Tag2-KRAS-G12C 5× working solution were added, and the above mixture was centrifuged, mixed, and stood for 15 minutes; then 10 μL of premixed anti-Tag1-Tb^3+ and anti-Tag2-XL665 were added, and the mixture was incubated at room temperature for 2 hours; finally, a microplate reader was used in […] mode to measure the fluorescence intensity of each well emitting wavelengths of 620 nm and […] under the excitation wavelength of 304 nm, and the fluorescence intensity ratio 665/620 in each well was calculated. Compared with the fluorescence intensity ratio of a control group (0.1% DMSO), the percentage inhibition rates of the test compounds at each concentration were calculated, and the IC50 values of the compounds were obtained by performing nonlinear regression analysis with logarithmic values of the compound concentration-inhibition rate by GraphPad Prism 5 software, which was shown in Table 1.

[2] = tested on: OCI-AML5 cells; experiment: Inhibition of OCI-AML5 cell proliferation (CellTiter-Glo); type: cell-based; details: Homo sapiens, OCI-AML-5; OCI-AML5 cells (SOS1 N233Y mutation), 120 hours
Summary of the method: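 OCI-AML5 cells (SOS1 N233Y), 1,000 per well, treated after overnight culture with compound at final 10000 nM to 0.15 nM for 120 hours at 37° C, 5% CO2. Viability read by CellTiter-Glo luminescence.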

| Structure (SMILES) | IC50 [1] [nM] | IC50 [2] [nM] |
| --- | --- | --- |
| COc1cc2nc(C)nc(N[C@H](C)c3cccc(C#N)c3C)c2cc1N1CCOCC1 [Compound 1, (R)-3-(1-((7-methoxy-2-methyl-6-morpholinoquinazolin-4-yl)amino)ethyl)-2-methylbenzonitrile] | 26.2 | 46.4 |
| COc1cc2nc(C)nc(N[C@H](C)c3cccc(C#N)c3C)c2cc1N1CCN(C(C)=O)CC1 [Compound 2, (R)-3-(1-((6-(4-acetylpiperazin-1-yl)-7-methoxy-2-methylquinazolin-4-yl)amino)ethyl)-2-methylbenzonitrile] | 20.7 | 8.4 |
| COc1cc2nc(C)nc(N[C@H](C)c3cccc(C#N)c3C)c2cc1N1CCC2(CCOCC2)CC1 [Compound 4, (R)-3-(1-((7-methoxy-2-methyl-6-(3-oxa-9-azaspiro[5.5]undecan-9-yl)quinazolin-4-yl)amino)ethyl)-2-methylbenzonitrile] | 65.2 | 6.3 |
| COc1cc2nc(C)nc(N[C@H](C)c3cccc(C#N)c3C)c2cc1N1CCC2(CC1)COC2 [Compound 5, (R)-3-(1-((7-methoxy-2-methyl-6-(2-oxa-7-azaspiro[3.5]nonan-7-yl)quinazolin-4-yl)amino)ethyl)-2-methylbenzonitrile] | 28 | 11.3 |
| COc1cc2nc(C)nc(N[C@H](C)c3cccc(C#N)c3C)c2cc1N1CCC2(CCN(C)C2=O)CC1 [Compound 7, (R)-3-(1-((7-methoxy-2-methyl-6-(2-methyl-1-oxo-2,8-diazaspiro[4.5]decan-8-yl)quinazolin-4-yl)amino)ethyl)-2-methylbenzonitrile] | 35.7 | 2.7 |
| COc1cc2nc(C)nc(N[C@H](C)c3cccc(C#N)c3C)c2cc1N1CCC(C#N)CC1 [Compound 8, (R)-1-(4-((1-(3-cyano-2-methylphenyl)ethyl)amino)-7-methoxy-2-methylquinazolin-6-yl)piperidine-4-carbonitrile] | 62 | 12 |
| COc1cc2nc(C)nc(N[C@H](C)c3cccc(C#N)c3C)c2cc1N1CCC(C)(O)CC1 [Compound 11, (R)-3-(1-((6-(4-hydroxy-4-methylpiperidin-1-yl)-7-methoxy-2-methylquinazolin-4-yl)amino)ethyl)-2-methylbenzonitrile] | 39.5 | 13.6 |
| COc1cc2nc(C)nc(N[C@H](C)c3cccc(C#N)c3C)c2cc1N1CCC2(CC1)CN(C(C)=O)C2 [Compound 19, (R)-3-(1-((6-(2-acetyl-2,7-diazaspiro[3.5]nonan-7-yl)-7-methoxy-2-methylquinazolin-4-yl)amino)ethyl)-2-methylbenzonitrile] | 22.3 | 16.4 |
